From patent US20250127165A1, “USE OF 2-AMINO-3-PHENYLBUTYRIC ACID OR 2,6-DIAMINO-3-METHYLHEXANOIC ACID AS PLANT IMMUNE RESISTANCE INDUCER” (NANJING TIANNONG BIOTECHNOLOGY CO., LTD., priority 2021, published 2025)

Assays:
tea seedlings (Baiye 1) = test: Induced resistance of tea tree to low temperature stress; format: in vivo; conditions: for PIABS (photosynthetic performance index): after −4° C. for 24 h; for cold injury index (%): −4° C. 24 h, 3 days recovery
Experimental: The tea tree tested was cutting seedling of Baiye 1. Tea seedlings with consistent growth were selected and transplanted into plastic pots with a diameter of 18 cm and placed in a greenhouse with a temperature of 25° C. and a humidity of 60%-70% for adaptive growth for about a week for the experiment. The concentrations used in this experiment were 0, 100, 1,000, and 10,000 nM, and 0.02% Tween 20 was added as surfactant, where the spray treatment method was the same as that of Arabidopsis thaliana in Example 1, the duration of low temperature stress was 24 hours, and the temperature was set to −4° C. After the stress was completed, the tea seedlings were removed and after 30 min of dark treatment at room temperature, the chlorophyll fluorescence of the top leaves of the tea seedlings was measured with Plant Efficiency Handy PEA. The tea seedlings were then placed in a greenhouse at 25° C. for 3 days for recovery. Then the condition of cold injury was observed and graded, where the grading standard of cold injury is shown Table 12, the formula for calculating the cold injury index is as follows.
The concentrations of 2,6-diamino-3-methylhexanoic acid used in the trail were 0, 1, 10, 100, and 1,000 nM, and 0.02% Tween 20 was added as surfactant. The effect of 2,6-diamino-3-methylhexanoic acid to induce the resistance of tea to low-temperature stress was investigated according to the method as described above.

lysine monooxygenase = conditions: Ohnishi et al., 1976; cited from earlier work
ryegrass = test: Induced resistance of ryegrass to high temperature stress; format: in vivo; conditions: for heat injury index (%): 45° C. 12 h, 7 days recovery
Experimental: 2,6-diamino-3-methylhexanoic acid was dissolved in distilled water and then gradiently diluted with distilled water into solutions of 1 nM, 10 nM, 100 nM, and 1,000 nM, and a blank control was set up, while 0.02% Tween 20 was added as surfactant. Four groups of replicates were set up for each concentration, and set up a blank control at room temperature. Ryegrass seeds were weighed and planted in a pot with a diameter of 8.5 cm at 0.8 g per pot, and transferred to a greenhouse with a temperature of 25° C., a humidity of 60%-70%, and a light intensity of 200 μmol m^−2s^−1 (12 h light/12 h darkness). After 7 days of growth, ryegrass was treated by spraying 2,6-diamino-3-methylhexanoic acid solution on the leaf surface, and spraying twice within 24 hours. 24 hours after the second spray, the plants were transferred to a light incubator at 45° C. for high temperature stress treatment. After 12 hours of treatment, they were removed and transferred to a greenhouse at 25° C. for 7 days for recovery. The injured conditions of the plants were observed and the grade of hot injury was calculated, where the grading standard of heat injury is shown in Table 8, and the formula for calculating the heat injury index is as follows.

Leuconostoc dextranicum = conditions: Edelson & Keeley, 1963; cited from earlier work
wheat powdery mildew = test: Field trial of induced resistance of wheat to powdery mildew; format: in vivo; conditions: 1,000 nM, field spray
Experimental: A solution of 2-amino-3-phenylbutyric acid at a concentration of 1,000 nM (with 0.02% by volume of surfactant Tween 20) was sprayed onto the stems and leaves in the field. The treatment included spraying 0.02% by volume of surfactant Tween 20 as an auxiliary control, and Atailing (30 g/mu) as a positive control, with two replications per treatment. After the spray, the disease grade of wheat in each treatment group was investigated, and the morbidity degree was recorded according to the grading standard of wheat powdery in the “Pesticides-Guidelines for the Field Efficacy Trails” (I), and the disease index and the relative immunization effect were calculated in the same manner as those of tomato spotted wilt. After the harvested wheat seeds were dried, the thousand grain weight of wheat seeds from different treatments was measured.
Grading Standard of Wheat Powdery Mildew (per leaf): • Grade 1: The area of diseased spots accounts for 5% or less of the whole leaf area; • Grade 3: The area of diseased spots accounts for 6%-15% of the whole leaf; • Grade 5: The area of diseased spots accounts for 16%-25% of the whole leaf; • Grade 7: The area of diseased spots accounts for 26%-50% of the whole leaf; • Grade 9: The area of diseased spots accounts for 50% or more of the whole leaf area.

arthritis in rats = conditions: 100 mg/kg and 200 mg/kg; Ren et al., 2019; cited from earlier work

SMILES: CC(CCCN)C(N)C(=O)O (centres unmarked) [2,6-diamino-3-methylhexanoic acid]
- PIABS (photosynthetic performance index) (tea seedlings (Baiye 1); 1 nM): 25.53 ± 0.09
- cold injury index (%) (tea seedlings (Baiye 1); 1 nM): 46%
- PIABS (photosynthetic performance index) (tea seedlings (Baiye 1); 10 nM): 32.44 ± 1.51 c
- cold injury index (%) (tea seedlings (Baiye 1); 10 nM): 42%
- PIABS (photosynthetic performance index) (tea seedlings (Baiye 1); 100 nM): 37.41 ± 0.14 b
- cold injury index (%) (tea seedlings (Baiye 1); 100 nM): 33%
- decrease of cold injury index (tea seedlings (Baiye 1); 1,000 nM): 45%
- increase of PIABS (tea seedlings (Baiye 1); 1,000 nM): 121%
- PIABS (photosynthetic performance index) (tea seedlings (Baiye 1); 1,000 nM): 40.14 ± 0.15 a
- cold injury index (%) (tea seedlings (Baiye 1); 1,000 nM): 26%
- substrate activity for lysine monooxygenase (lysine monooxygenase): no substrate activity
- heat injury index (%) (ryegrass; 1 nM): 60%
- heat injury index (%) (ryegrass; 10 nM): 54%
- heat injury index (%) (ryegrass; 100 nM): 40%
- decrease of heat injury index (ryegrass; 1,000 nM): 69%
- heat injury index (%) (ryegrass; 1,000 nM): 22%

SMILES: CC(c1ccccc1)C(N)C(=O)O (centres unmarked) [2-amino-3-phenylbutyric acid]
- PIABS (photosynthetic performance index) (tea seedlings (Baiye 1); 100 nM): 21.83 ± 1.73 bc
- cold injury index (%) (tea seedlings (Baiye 1); 100 nM): 66.33%
- PIABS (photosynthetic performance index) (tea seedlings (Baiye 1); 1,000 nM): 33.67 ± 3.27 b
- cold injury index (%) (tea seedlings (Baiye 1); 1,000 nM): 45%
- decrease of cold injury index (tea seedlings (Baiye 1); 10,000 nM): 35%
- increase of PIABS (tea seedlings (Baiye 1); 10,000 nM): 147%
- PIABS (photosynthetic performance index) (tea seedlings (Baiye 1); 10,000 nM): 42.36 ± 3.51 a
- cold injury index (%) (tea seedlings (Baiye 1); 10,000 nM): 40%
- effect on growth of Leuconostoc dextranicum (Leuconostoc dextranicum): inhibited the growth
- relative immunization effect (%) (wheat powdery mildew): 51.72%
- thousand grain weight (wheat powdery mildew): 38.87 g
- thousand grain weight (g) (wheat powdery mildew): 38.87 ± 0.20 a g
- effect on arthritis in rats (arthritis in rats): can alleviate arthritis
